Experimental data as given in patent US6559101B2, “N- (5, 7-dimethoxy [1, 2, 4] triazolo [1, 5-a] pyrimidin-2-yl) arylsulfonamide compounds and their use as herbicides” (Dow AgroSciences LLC, priority 2000, dated 2003).

Experiments:
Format in all cases: in vivo
[1] = test system: giant foxtail (Setaria faberi); test: Postemergence herbicidal activity; conditions: scored after 2 weeks, 0 no injury, 100 complete kill
Method: (§1) Seeds of the desired test plant species were planted in Grace-Sierra MetroMix® 306 planting mixture, which typically has a pH of 6.0 to 6.8 and an organic matter content of about 30 percent, in plastic pots with a surface area of 64 square centimeters. When required to ensure good germination and healthy plants, a fungicide treatment and/or other chemical or physical treatment was applied. The plants were grown for 7-21 days in a greenhouse with an approximately 15 hr photoperiod which was maintained at about 23-29° C. during the day and 22-28° C. during the night. Nutrients and water were added on a regular basis and supplemental lighting was provided with overhead metal halide 1000 Watt lamps as necessary. The plants were employed for testing when they reached the first or second true leaf stage. A weighed amount of each test compound, determined by the highest rate to be tested, was placed in a 20 mL glass vial and was dissolved in 4 mL of a 97:3 v/v (volume/volume) mixture of acetone and dimethyl sulfoxide to obtain concentrated stock solutions. […] The concentrated stock solutions obtained were diluted with an aqueous mixture containing acetone, water, iso-propyl alcohol, dimethyl sulfoxide, Atplus 411F crop oil concentrate, and Triton X-155 surfactant (methylenebisdiamyl phenoxy polyethoxy ethanol) in a 48.5:39:10:1.5:1.0:0.02 v/v ratio to obtain spray solutions of known concentration. The solutions containing the highest concentration to be tested were prepared by diluting 2 mL aliquots of the stock solution with 13 mL of the mixture and lower concentrations were prepared by dilution of appropriate smaller portions of the stock solution. Approximately 1.5 mL aliquots of each solution of known concentration were sprayed evenly onto each of the test plant pots using a Devilbiss atomizer driven by compressed air pressure of 2 to 4 psi (140 to 280 kiloPascals) to obtain thorough coverage of each plant. Control plants were sprayed in the same manner with the aqueous mixture. In this test an application rate of 1 ppm results in the application of approximately 1 g/ha. The treated plants and control plants were placed in a greenhouse as described above and watered by sub-irrigation to prevent wash-off of the test compounds. After 2 weeks the condition of the test plants as compared with that of the untreated plants was determined visually and scored on a scale of 0 to 100 percent where 0 corresponds to no injury and 100 corresponds to complete kill.

[2] = test system: pigweed (Amaranthus retroflexus); test: Postemergence herbicidal activity; conditions: scored after 2 weeks, 0 no injury, 100 complete kill
Method: as §1

[3] = test system: wild buckwheat (Polygonum convolvulus); test: Postemergence herbicidal activity; conditions: scored after 2 weeks, 0 no injury, 100 complete kill
Method: as §1

[4] = test system: blackgrass (Alopecurus myosuroides); test: Postemergence herbicidal activity; conditions: scored after 2 weeks, 0 no injury, 100 complete kill
Method: as §1

[5] = test system: velvetleaf (Abutilion theophrasti); test: Postemergence herbicidal activity; conditions: scored after 2 weeks, 0 no injury, 100 complete kill
Method: as §1

[6] = test system: Rox orange sorghum (Sorghum bicolor); test: Postemergence herbicidal activity; conditions: scored after 2 weeks, 0 no injury, 100 complete kill
Method: as §1

[7] = test system: lambsquarters (Chenopodium album); test: Postemergence herbicidal activity; conditions: scored after 2 weeks, 0 no injury, 100 complete kill
Method: as §1

[8] = test system: wild oats (Avena fatua); test: Postemergence herbicidal activity; conditions: scored after 2 weeks, 0 no injury, 100 complete kill
Method: as §1

[9] = test system: morningglory (Ipomoea hederacea); test: Postemergence herbicidal activity; conditions: scored after 2 weeks, 0 no injury, 100 complete kill
Method: as §1

[10] = test system: chickweed (Stellaria media); test: Postemergence herbicidal activity; conditions: scored after 2 weeks, 0 no injury, 100 complete kill
Method: as §1

[11] = test system: viola (Viola tricolor); test: Postemergence herbicidal activity; conditions: scored after 2 weeks, 0 no injury, 100 complete kill
Method: as §1

[12] = test system: cocklebur (Xanthium strumarium); test: Postemergence herbicidal activity; conditions: scored after 2 weeks, 0 no injury, 100 complete kill
Method: as §1

[13] = test system: crabgrass (Digitaria sanguinalis); test: Preemergence herbicidal activity; conditions: scored after 3 weeks, 0 no injury, 100 complete kill or no germination
Method: (§2) The soil matrix was contained in plastic pots with a surface area of 161 square centimeters. When required to ensure good germination and healthy plants, a fungicide treatment and/or other chemical or physical treatment was applied. A weighed amount, determined by the highest rate to be tested, of each test compound was placed in a 20 mL glass vial and was dissolved in 8 mL of a 97:3 v/v (volume/volume) mixture of acetone and dimethyl sulfoxide to obtain concentrated stock solutions. […] The stock solutions obtained were diluted with a 99.9:0.1 mixture of water and Tween® 155 surfactant (ethoxylated sorbitan fatty acid ester) to obtain application solutions of known concentration. The solutions containing the highest concentration to be tested were prepared by diluting 4 mL aliquots of the stock solution with 8.5 mL of the mixture and lower concentrations were prepared by dilution of appropriate smaller portions of the stock solution. A 2.5 mL aliquot of each solution of known concentration was sprayed evenly onto the soil of each seeded pot using a Cornwall 5.0 mL glass syringe fitted with a TeeJet TN-3 hollow cone nozzle to obtain thorough coverage of the soil in each pot. Control pots were sprayed in the same manner with the aqueous mixture. A highest application rate of 4.48 kg/ha is achieved when 50 mg of test compound is employed. The treated pots and control pots were placed in a greenhouse with an approximately 15 hr photoperiod which was maintained at about 23-29° C. during the day and 22-28° C. during the night. Nutrients and water were added on a regular basis and supplemental lighting was provided with overhead metal halide 1000 Watt lamps as necessary. The water was added by top-irrigation. After 3 weeks the condition of the test plants that germinated and grew as compared with that of the untreated plants that germinated and grew was determined visually and scored on a scale of 0 to 100 percent where 0 corresponds to no injury and 100 corresponds to complete kill or no germination.

[14] = test system: giant foxtail (Setaria faberi); test: Preemergence herbicidal activity; conditions: scored after 3 weeks, 0 no injury, 100 complete kill or no germination
Method: as §2

[15] = test system: pigweed (Amaranthus retroflexus); test: Preemergence herbicidal activity; conditions: scored after 3 weeks, 0 no injury, 100 complete kill or no germination
Method: as §2

[16] = test system: blackgrass (Alopecurus myosuroides); test: Preemergence herbicidal activity; conditions: scored after 3 weeks, 0 no injury, 100 complete kill or no germination
Method: as §2

[17] = test system: velvetleaf (Abutilion theophrasti); test: Preemergence herbicidal activity; conditions: scored after 3 weeks, 0 no injury, 100 complete kill or no germination
Method: as §2

[18] = test system: Rox orange sorghum (Sorghum bicolor); test: Preemergence herbicidal activity; conditions: scored after 3 weeks, 0 no injury, 100 complete kill or no germination
Method: as §2

[19] = test system: wild poinsettia (Euphorbia heterophylla); test: Preemergence herbicidal activity; conditions: scored after 3 weeks, 0 no injury, 100 complete kill or no germination
Method: as §2

[20] = test system: wild oats (Avena fatua); test: Preemergence herbicidal activity; conditions: scored after 3 weeks, 0 no injury, 100 complete kill or no germination
Method: as §2

[21] = test system: morningglory (Ipomoea hederacea); test: Preemergence herbicidal activity; conditions: scored after 3 weeks, 0 no injury, 100 complete kill or no germination
Method: as §2

[22] = test system: barnyardgrass (Echinochloa crus-galli); test: Preemergence herbicidal activity; conditions: scored after 3 weeks, 0 no injury, 100 complete kill or no germination
Method: as §2

[23] = test system: cocklebur (Xanthium strumarium); test: Preemergence herbicidal activity; conditions: scored after 3 weeks, 0 no injury, 100 complete kill or no germination
Method: as §2

## COc1cc(OC)n2nc(NS(=O)(=O)c3c(OC)cccc3C(F)(F)F)nc2n1 [Compound 4]
[1]; 3.9 ppm
  Postemergence herbicidal activity SETFA: 100%
[2]; 3.9 ppm
  Postemergence herbicidal activity AMARE: 100%
[3]; 3.9 ppm
  Postemergence herbicidal activity POLCO: 95%
[4]; 3.9 ppm
  Postemergence herbicidal activity ALOMY: 95%
[5]; 3.9 ppm
  Postemergence herbicidal activity ABUTH: 95%
[6]; 3.9 ppm
  Postemergence herbicidal activity SORBI: 95%
[7]; 3.9 ppm
  Postemergence herbicidal activity CHEAL: 95%
[8]; 3.9 ppm
  Postemergence herbicidal activity AVEFA: 98%
[9]; 3.9 ppm
  Postemergence herbicidal activity IPOHE: 90%
[10]; 3.9 ppm
  Postemergence herbicidal activity STEME: 99%
[11]; 3.9 ppm
  Postemergence herbicidal activity VIOTR: 90%
[12]; 3.9 ppm
  Postemergence herbicidal activity XANST: 70%
[13]; 17.5 g/Ha
  Preemergence herbicidal activity DIGSA: 100%
[14]; 17.5 g/Ha
  Preemergence herbicidal activity SETFA: 99%
[15]; 17.5 g/Ha
  Preemergence herbicidal activity AMARE: 99%
[16]; 17.5 g/Ha
  Preemergence herbicidal activity ALOMY: 100%
[17]; 17.5 g/Ha
  Preemergence herbicidal activity ABUTH: 98%
[18]; 17.5 g/Ha
  Preemergence herbicidal activity SORBI: 100%
[19]; 17.5 g/Ha
  Preemergence herbicidal activity EPHHL: 98%
[20]; 17.5 g/Ha
  Preemergence herbicidal activity AVEFA: 100%
[21]; 17.5 g/Ha
  Preemergence herbicidal activity IPOHE: 98%
[22]; 17.5 g/Ha
  Preemergence herbicidal activity ECHCG: 100%
[23]; 17.5 g/Ha
  Preemergence herbicidal activity XANST: 85%

## COc1cc(OC)n2nc(NS(=O)(=O)c3cc(Cl)ccc3OC)nc2n1 [Compound 5]
[1]; 62.5 ppm
  Postemergence herbicidal activity SETFA: 98%
[2]; 62.5 ppm
  Postemergence herbicidal activity AMARE: 100%
[3]; 62.5 ppm
  Postemergence herbicidal activity POLCO: 98%
[4]; 62.5 ppm
  Postemergence herbicidal activity ALOMY: 95%
[5]; 62.5 ppm
  Postemergence herbicidal activity ABUTH: 98%
[6]; 62.5 ppm
  Postemergence herbicidal activity SORBI: 100%
[7]; 62.5 ppm
  Postemergence herbicidal activity CHEAL: 95%
[8]; 62.5 ppm
  Postemergence herbicidal activity AVEFA: 99%
[9]; 62.5 ppm
  Postemergence herbicidal activity IPOHE: 80%
[10]; 62.5 ppm
  Postemergence herbicidal activity STEME: 98%
[11]; 62.5 ppm
  Postemergence herbicidal activity VIOTR: 90%
[12]; 62.5 ppm
  Postemergence herbicidal activity XANST: 100%
[13]; 70 g/Ha
  Preemergence herbicidal activity DIGSA: 99%
[14]; 70 g/Ha
  Preemergence herbicidal activity SETFA: 98%
[15]; 70 g/Ha
  Preemergence herbicidal activity AMARE: 99%
[16]; 70 g/Ha
  Preemergence herbicidal activity ALOMY: 100%
[17]; 70 g/Ha
  Preemergence herbicidal activity ABUTH: 95%
[18]; 70 g/Ha
  Preemergence herbicidal activity SORBI: 95%
[19]; 70 g/Ha
  Preemergence herbicidal activity EPHHL: 90%
[20]; 70 g/Ha
  Preemergence herbicidal activity AVEFA: 99%
[21]; 70 g/Ha
  Preemergence herbicidal activity IPOHE: 75%
[22]; 70 g/Ha
  Preemergence herbicidal activity ECHCG: 98%
[23]; 70 g/Ha
  Preemergence herbicidal activity XANST: 85%

## COC(=O)c1cccc(OC)c1S(=O)(=O)Nc1nc2nc(OC)cc(OC)n2n1 [Compound 7]
[1]; 62.5 ppm
  Postemergence herbicidal activity SETFA: 95%
[2]; 62.5 ppm
  Postemergence herbicidal activity AMARE: 95%
[3]; 62.5 ppm
  Postemergence herbicidal activity POLCO: 85%
[4]; 62.5 ppm
  Postemergence herbicidal activity ALOMY: 95%
[5]; 62.5 ppm
  Postemergence herbicidal activity ABUTH: 70%
[6]; 62.5 ppm
  Postemergence herbicidal activity SORBI: 80%
[8]; 62.5 ppm
  Postemergence herbicidal activity AVEFA: 90%
[9]; 62.5 ppm
  Postemergence herbicidal activity IPOHE: 80%
[10]; 62.5 ppm
  Postemergence herbicidal activity STEME: 90%
[11]; 62.5 ppm
  Postemergence herbicidal activity VIOTR: 80%
[12]; 62.5 ppm
  Postemergence herbicidal activity XANST: 40%
[13]; 70 g/Ha
  Preemergence herbicidal activity DIGSA: 40%
[14]; 70 g/Ha
  Preemergence herbicidal activity SETFA: 100%
[15]; 70 g/Ha
  Preemergence herbicidal activity AMARE: 100%
[16]; 70 g/Ha
  Preemergence herbicidal activity ALOMY: 100%
[17]; 70 g/Ha
  Preemergence herbicidal activity ABUTH: 0%
[18]; 70 g/Ha
  Preemergence herbicidal activity SORBI: 95%
[19]; 70 g/Ha
  Preemergence herbicidal activity EPHHL: 20%
[20]; 70 g/Ha
  Preemergence herbicidal activity AVEFA: 70%
[21]; 70 g/Ha
  Preemergence herbicidal activity IPOHE: 10%
[22]; 70 g/Ha
  Preemergence herbicidal activity ECHCG: 20%
[23]; 70 g/Ha
  Preemergence herbicidal activity XANST: 0%
